Tests used:
[1] = rat, in vivo, po, 10 mg/kg
[2] = tested on: rat adjuvant-induced arthritis model; experiment: Embodiment 2: oral Nib1 and medium-dose methotrexate in rat adjuvant-induced arthritis model (joint score, paw volume, AUC); type: in vivo, Lewis rat; conditions: MTX 0.5 mpk, Nib1 5 mpk, Nib1 5 mpk + MTX 0.5 mpk; for Relative to G2 percentage (%) (AUC of changes in paw volume): Embodiment 2, G2 = Vehicle, Tofacitinib 5 mpk; for Total area (AUC of changes in paw volume): Embodiment 2, Tofacitinib 5 mpk, in mL·day
[3] = tested on: Lewis rat adjuvant-induced arthritis model; experiment: Embodiment 1: oral Nib1 and injected methotrexate in Lewis rat adjuvant-induced arthritis model (joint score, paw volume, AUC); type: in vivo
[4] = tested on: adjuvant-induced arthritis in rats; experiment: Embodiment 3: oral Nib1 and methotrexate in adjuvant-induced arthritis in rats (joint score, paw volume, AUC); type: in vivo, Lewis rat; conditions: for Relative to G2 percentage (%) (AUC of changes in paw volume): G2 = Vehicle; for Relative to G2 percentage (%) (AUC of changes in paw volume) / Area under the curve AUC (ml*day) of changes in paw volume / Clinical scoring of arthritis (sum of the scores of the quadrupedal joints), Average value / volume of the right hind foot, Average value: oral, Tofacitinib 5 mpk, MTX 0.05 mpk, Nib1 1 mpk, Nib1 1 mpk + MTX 0.05 mpk
[5] = rat, in vivo

O=c1[nH]c2ccccc2n1C1CCN(CCCC(c2ccc(F)cc2)c2ccc(F)cc2)CC1 [Nib1, Pimozide]
changes in body weight over time (FIG. 1) [1]: lower than other groups, but there was no significant difference | Relative to G2 percentage (%) (AUC of changes in paw volume) [2]: 56.9% | Total area (AUC of changes in paw volume) [2]: 21.32 | Clinical scoring of arthritis (sum of the scores of the quadrupedal joints), Average value ([2]; day 0, Tofacitinib 5 mpk): 0 | paw volume (right hind foot), Average value ([2]; day 0, Tofacitinib 5 mpk): 1.02 mL | Clinical scoring of arthritis (sum of the scores of the quadrupedal joints), Average value ([2]; day 7, Tofacitinib 5 mpk): 0.63 | paw volume (right hind foot), Average value ([2]; day 7, Tofacitinib 5 mpk): 1.71 mL | Clinical scoring of arthritis (sum of the scores of the quadrupedal joints), Average value ([2]; day 13, Tofacitinib 5 mpk): 1.75 | paw volume (right hind foot), Average value ([2]; day 13, Tofacitinib 5 mpk): 1.88 mL | Clinical scoring of arthritis (sum of the scores of the quadrupedal joints), Average value ([2]; day 15, Tofacitinib 5 mpk): 5.50 | paw volume (right hind foot), Average value ([2]; day 15, Tofacitinib 5 mpk): 1.94 mL | Clinical scoring of arthritis (sum of the scores of the quadrupedal joints), Average value ([2]; day 17, Tofacitinib 5 mpk): 6.75 | paw volume (right hind foot), Average value ([2]; day 17, Tofacitinib 5 mpk): 2.05 mL | Clinical scoring of arthritis (sum of the scores of the quadrupedal joints), Average value ([2]; day 20, Tofacitinib 5 mpk): 7.00 | paw volume (right hind foot), Average value ([2]; day 20, Tofacitinib 5 mpk): 2.05 mL | Clinical scoring of arthritis (sum of the scores of the quadrupedal joints), Average value ([2]; day 22, Tofacitinib 5 mpk): 7.25 | paw volume (right hind foot), Average value ([2]; day 22, Tofacitinib 5 mpk): 2.00 mL | Clinical scoring of arthritis (sum of the scores of the quadrupedal joints), Average value ([2]; day 24, Tofacitinib 5 mpk): 7.25 | paw volume (right hind foot), Average value ([2]; day 24, Tofacitinib 5 mpk): 2.06 mL | Clinical scoring of arthritis (sum of the scores of the quadrupedal joints), Average value ([2]; day 27, Tofacitinib 5 mpk): 7.00 | paw volume (right hind foot), Average value ([2]; day 27, Tofacitinib 5 mpk): 2.20 mL | Clinical scoring of arthritis (sum of the scores of the quadrupedal joints), Average value ([2]; day 29, Tofacitinib 5 mpk): 6.88 | paw volume (right hind foot), Average value ([2]; day 29, Tofacitinib 5 mpk): 2.16 mL | Clinical scoring of arthritis (sum of the scores of the quadrupedal joints), Average value ([2]; day 31, Tofacitinib 5 mpk): 7.13 | paw volume (right hind foot), Average value ([2]; day 31, Tofacitinib 5 mpk): 2.16 mL | Clinical scoring of arthritis (sum of the scores of the quadrupedal joints), Average value ([2]; day 34, Tofacitinib 5 mpk): 6.88 | paw volume (right hind foot), Average value ([2]; day 34, Tofacitinib 5 mpk): 1.02 mL | the therapeutic effects compared with vehicle group (paw volume x time AUC %) ([3]; methotrexate 0.5 mg/kg intraperitoneal once per week, Nib1 10 mg/kg oral once every two days): 66.6% | paw volume AUC relative to vehicle group, as fraction ([3]; methotrexate 0.5 mg/kg intraperitoneal, Nib1 10 mg/kg oral): 0.666 | Relative to G2 percentage (%) (AUC of changes in paw volume) ([4]; Embodiment 3): 74.9% | change ratio of ΔAUC relative to the vehicle group, as fraction ([4]; Embodiment 3, methotrexate 0.05 mg/kg, Nib1 1 mg/kg): 0.749 | Area under the curve AUC (ml*day) of changes in paw volume ([4]; Embodiment 3): 14.26 mL·days | Clinical scoring of arthritis (sum of the scores of the quadrupedal joints), Average value ([4]; day 0): 0.00 | volume of the right hind foot, Average value ([4]; day 0): 1.31 mL | Clinical scoring of arthritis (sum of the scores of the quadrupedal joints), Average value ([4]; day 8): 0.78 | volume of the right hind foot, Average value ([4]; day 8): 1.44 mL | Clinical scoring of arthritis (sum of the scores of the quadrupedal joints), Average value ([4]; day 11): 3.33 | volume of the right hind foot, Average value ([4]; day 11): 1.79 mL | Clinical scoring of arthritis (sum of the scores of the quadrupedal joints), Average value ([4]; day 13): 5.22 | Clinical scoring of arthritis (sum of the scores of the quadrupedal joints), Average value ([4]; day 15): 6.33 | volume of the right hind foot, Average value ([4]; day 15): 2.41 mL | Clinical scoring of arthritis (sum of the scores of the quadrupedal joints), Average value ([4]; day 18): 7.89 | volume of the right hind foot, Average value ([4]; day 18): 2.73 mL | Clinical scoring of arthritis (sum of the scores of the quadrupedal joints), Average value ([4]; day 21): 8.56 | volume of the right hind foot, Average value ([4]; day 22): 3.10 mL | Clinical scoring of arthritis (sum of the scores of the quadrupedal joints), Average value ([4]; day 24): 8.67 | changes in body weight over time (Table 5, FIG. 5) [5]: decreased significantly in the initial stage, and gradually recovered in the later stage

C[C@@H]1CCN(C(=O)CC#N)C[C@@H]1N(C)c1ncnc2[nH]ccc12 [Tofacitinib]
Relative to G2 percentage (%) (AUC of changes in paw volume) [2]: 44.3% | Total area (AUC of changes in paw volume) [2]: 16.61 | Clinical scoring of arthritis (sum of the scores of the quadrupedal joints), Average value ([2]; day 0, Tofacitinib 5 mpk): 0 | paw volume (right hind foot), Average value ([2]; day 0, Tofacitinib 5 mpk): 1.01 mL | Clinical scoring of arthritis (sum of the scores of the quadrupedal joints), Average value ([2]; day 7, Tofacitinib 5 mpk): 0.50 | paw volume (right hind foot), Average value ([2]; day 7, Tofacitinib 5 mpk): 1.57 mL | Clinical scoring of arthritis (sum of the scores of the quadrupedal joints), Average value ([2]; day 13, Tofacitinib 5 mpk): 1.38 | paw volume (right hind foot), Average value ([2]; day 13, Tofacitinib 5 mpk): 1.80 mL | Clinical scoring of arthritis (sum of the scores of the quadrupedal joints), Average value ([2]; day 15, Tofacitinib 5 mpk): 3.50 | paw volume (right hind foot), Average value ([2]; day 15, Tofacitinib 5 mpk): 1.81 mL | Clinical scoring of arthritis (sum of the scores of the quadrupedal joints), Average value ([2]; day 17, Tofacitinib 5 mpk): 4.88 | paw volume (right hind foot), Average value ([2]; day 17, Tofacitinib 5 mpk): 1.85 mL | Clinical scoring of arthritis (sum of the scores of the quadrupedal joints), Average value ([2]; day 20, Tofacitinib 5 mpk): 5.13 | paw volume (right hind foot), Average value ([2]; day 20, Tofacitinib 5 mpk): 1.90 mL | Clinical scoring of arthritis (sum of the scores of the quadrupedal joints), Average value ([2]; day 22, Tofacitinib 5 mpk): 5.25 | paw volume (right hind foot), Average value ([2]; day 22, Tofacitinib 5 mpk): 1.89 mL | Clinical scoring of arthritis (sum of the scores of the quadrupedal joints), Average value ([2]; day 24, Tofacitinib 5 mpk): 4.75 | paw volume (right hind foot), Average value ([2]; day 24, Tofacitinib 5 mpk): 1.81 mL | Clinical scoring of arthritis (sum of the scores of the quadrupedal joints), Average value ([2]; day 27, Tofacitinib 5 mpk): 4.50 | paw volume (right hind foot), Average value ([2]; day 27, Tofacitinib 5 mpk): 1.76 mL | Clinical scoring of arthritis (sum of the scores of the quadrupedal joints), Average value ([2]; day 29, Tofacitinib 5 mpk): 4.38 | paw volume (right hind foot), Average value ([2]; day 29, Tofacitinib 5 mpk): 1.74 mL | Clinical scoring of arthritis (sum of the scores of the quadrupedal joints), Average value ([2]; day 31, Tofacitinib 5 mpk): 4.38 | paw volume (right hind foot), Average value ([2]; day 31, Tofacitinib 5 mpk): 1.71 mL | Clinical scoring of arthritis (sum of the scores of the quadrupedal joints), Average value ([2]; day 34, Tofacitinib 5 mpk): 4.25 | paw volume (right hind foot), Average value ([2]; day 34, Tofacitinib 5 mpk): 1.01 mL | Relative to G2 percentage (%) (AUC of changes in paw volume) ([4]; Embodiment 3): 59.2% | Area under the curve AUC (ml*day) of changes in paw volume ([4]; Embodiment 3): 11.27 mL·days | Clinical scoring of arthritis (sum of the scores of the quadrupedal joints), Average value ([4]; day 0): 0.00 | volume of the right hind foot, Average value ([4]; day 0): 1.31 mL | Clinical scoring of arthritis (sum of the scores of the quadrupedal joints), Average value ([4]; day 8): 0.33 | volume of the right hind foot, Average value ([4]; day 8): 1.40 mL | Clinical scoring of arthritis (sum of the scores of the quadrupedal joints), Average value ([4]; day 11): 2.67 | volume of the right hind foot, Average value ([4]; day 11): 1.76 mL | Clinical scoring of arthritis (sum of the scores of the quadrupedal joints), Average value ([4]; day 13): 4.33 | Clinical scoring of arthritis (sum of the scores of the quadrupedal joints), Average value ([4]; day 15): 5.67 | volume of the right hind foot, Average value ([4]; day 15): 2.27 mL | Clinical scoring of arthritis (sum of the scores of the quadrupedal joints), Average value ([4]; day 18): 6.33 | volume of the right hind foot, Average value ([4]; day 18): 2.40 mL | Clinical scoring of arthritis (sum of the scores of the quadrupedal joints), Average value ([4]; day 21): 6.22 | volume of the right hind foot, Average value ([4]; day 22): 2.52 mL | Clinical scoring of arthritis (sum of the scores of the quadrupedal joints), Average value ([4]; day 24): 5.33

Reference: patent publication US12409179B2 (GENEROS BIOPHARMA LTD., priority 2019, dated 2025)
